Test systems include HL-60(TB) leukemia; LOX IMVI melanoma; HCT-15 colon; K-562 leukemia; OVCAR-4 ovarian; SR leukemia; UO-31 renal; EKVX NSCLC; COLO 205 colon; RXF 393 renal.
Test in all cases: growth of human tumour cells (NCI), 48 h

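The compound was tested at five concentrations on cells cultured in 96-well plates, with a 48-hour exposure period. At the GI50, growth is halved. At the TGI there is no net growth.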 A value given as a limit tells only on which side of the number the result lay.

Take `O=C1CC2C(=O)c3ccccc3CC2c2ccccc21` (stereo unspecified): the TGI in the assay with HL-60(TB) leukemia was 62.6 µM; in the assay on LOX IMVI melanoma, more than 100 µM; in the assay on HCT-15 colon, more than 100 µM; with K-562 leukemia, more than 100 µM; in the assay on OVCAR-4 ovarian, more than 100 µM; in the assay on SR leukemia, 81.6 µM. Besides, the TGI in the assay on UO-31 renal and with EKVX NSCLC was more than 100 µM in each case.

In the case of `COC12CCC(=O)C=C1c1ccccc1N2C(C)=O` (stereo unspecified), the TGI in the assay with HL-60(TB) leukemia, with COLO 205 colon, with RXF 393 renal, in the assay with HCT-15 colon, in the assay with K-562 leukemia and in the assay with OVCAR-4 ovarian was more than 100 µM each time. The TGI in the assay with SR leukemia, in the assay on UO-31 renal and in the assay on EKVX NSCLC was more than 100 µM each time.

For the compound `COc1ccc(NC(=O)CC2SC(=Nc3ccccc3C)NC2=O)c([N+](=O)[O-])c1` (stereo unspecified), the TGI in the assay on HL-60(TB) leukemia, in the assay with COLO 205 colon, with LOX IMVI melanoma, with HCT-15 colon, in the assay with K-562 leukemia and with OVCAR-4 ovarian was more than 100 µM each time. In addition, the TGI in the assay on SR leukemia and in the assay on UO-31 renal was more than 100 µM throughout.

With `CCOC(=O)Nc1nc2ccc(OC)cc2s1`, the GI50 in the assay on HL-60(TB) leukemia, with COLO 205 colon, in the assay on RXF 393 renal, with LOX IMVI melanoma, in the assay on HCT-15 colon and in the assay on K-562 leukemia was more than 100 µM in each case. For the same compound, the GI50 in the assay on OVCAR-4 ovarian was more than 100 µM; in the assay on SR leukemia it was 8.14 µM; in the assay with UO-31 renal, more than 100 µM. Further, the TGI in the assay on HL-60(TB) leukemia, in the assay with COLO 205 colon, with RXF 393 renal, in the assay with LOX IMVI melanoma, in the assay with HCT-15 colon and with K-562 leukemia was more than 100 µM each time. Further, the TGI in the assay with OVCAR-4 ovarian, in the assay with SR leukemia and in the assay on UO-31 renal was more than 100 µM each time.

In the case of `O=C(/C=C/c1ccccc1)C(Br)C(Br)c1ccccc1` (stereo unspecified), the GI50 in the assay with HL-60(TB) leukemia is 1.34 µM; in the assay on COLO 205 colon, 1.54 µM; in the assay on RXF 393 renal it was 1.52 µM; in the assay on LOX IMVI melanoma, 1.52 µM; in the assay with K-562 leukemia, 0.303 µM; with OVCAR-4 ovarian it was 1.73 µM. In addition, the figures for the GI50 in the assay on SR leukemia and in the assay with UO-31 renal were 0.455 µM and 1.19 µM, respectively. In addition, the TGI in the assay with HL-60(TB) leukemia came out at 3.58 µM; with COLO 205 colon, 3.14 µM; in the assay on RXF 393 renal, 3 µM; with LOX IMVI melanoma it was 2.91 µM; in the assay on K-562 leukemia, 1.25 µM; in the assay with OVCAR-4 ovarian, 3.67 µM. Moreover, the TGI in the assay on SR leukemia turned out to be 2.59 µM; in the assay with UO-31 renal it was 2.48 µM.

`Cc1[nH]nc(C(F)(F)F)c1N=NN(C)C`: the TGI with HL-60(TB) leukemia was 42.9 µM; in the assay on COLO 205 colon it was 10.7 µM; in the assay with RXF 393 renal it was 26.5 µM; in the assay on LOX IMVI melanoma, more than 100 µM; in the assay on HCT-15 colon it was 24.4 µM; in the assay with K-562 leukemia it was 11.9 µM. Further, the TGI stood at 18.8 µM in the assay on SR leukemia, 5.03 µM with UO-31 renal and 11.5 µM in the assay on EKVX NSCLC.

With `OCc1ccc(N2CCc3cccc(F)c3C2)cc1Cl`, the GI50 is 18.4 µM in the assay with HL-60(TB) leukemia; 0.0197 µM in the assay on COLO 205 colon; 12.6 µM in the assay on RXF 393 renal; 23.5 µM with LOX IMVI melanoma; 10.4 µM in the assay on HCT-15 colon; less than 0.0206 µM in the assay on K-562 leukemia. The figures for the GI50 in the assay with OVCAR-4 ovarian, in the assay on SR leukemia and with UO-31 renal were 0.0279 µM, 19.3 µM and 14.5 µM, respectively. Moreover, the TGI with HL-60(TB) leukemia is 53.2 µM; with COLO 205 colon it was 0.175 µM; in the assay on RXF 393 renal, 27.9 µM; in the assay on LOX IMVI melanoma, more than 63.2 µM; with HCT-15 colon it was 36.3 µM; in the assay with K-562 leukemia, 16.5 µM. Also, the TGI was 0.201 µM in the assay on OVCAR-4 ovarian, 58.8 µM in the assay with SR leukemia and 46.6 µM with UO-31 renal.

Regarding `O=C(O)c1ccc(CI)cc1`, the TGI with HL-60(TB) leukemia was determined as 42.4 µM; with COLO 205 colon, 32.4 µM; in the assay on RXF 393 renal, 37.6 µM; with HCT-15 colon, 39.8 µM; with K-562 leukemia, 74.6 µM; in the assay with OVCAR-4 ovarian, 27.4 µM. Besides, the TGI in the assay with SR leukemia turned out to be 59.1 µM; in the assay on UO-31 renal it was 32.7 µM; with EKVX NSCLC it was 36.4 µM.

With `CC[n+]1oc(C(=O)c2ccc(Cl)cc2)c(-c2ccccc2)c1-c1ccccc1.[Cl][Fe]([Cl])([Cl])[Cl]`, the GI50 in the assay with HL-60(TB) leukemia was 83.6 µM; in the assay on COLO 205 colon it was 50.7 µM; in the assay on LOX IMVI melanoma, 1.82 µM; in the assay with HCT-15 colon it was 72.6 µM; in the assay with K-562 leukemia, more than 100 µM; with OVCAR-4 ovarian, 65.7 µM. The GI50 was 33 µM with SR leukemia, 2.23 µM in the assay on UO-31 renal and 30.4 µM in the assay with EKVX NSCLC. Moreover, the TGI in the assay on HL-60(TB) leukemia, with COLO 205 colon, in the assay on LOX IMVI melanoma, in the assay with HCT-15 colon, in the assay on K-562 leukemia and with OVCAR-4 ovarian was more than 100 µM throughout. The values for the TGI in the assay with SR leukemia, in the assay on UO-31 renal and in the assay with EKVX NSCLC were more than 100 µM, 21.5 µM and more than 100 µM, respectively.

With `C=CCn1c(C)nc2ccc(Nc3nc(Nc4ccc(F)cc4)nc4ccccc34)cc21`, the GI50 in the assay with HL-60(TB) leukemia is 4.95 µM; in the assay on RXF 393 renal, 1.23 µM; in the assay on LOX IMVI melanoma it was 4.36 µM; with HCT-15 colon, 2.84 µM; in the assay with K-562 leukemia, 3.13 µM; in the assay with OVCAR-4 ovarian, 2.06 µM. Also, the GI50 in the assay on SR leukemia is 2.26 µM; in the assay with UO-31 renal, 4.53 µM. For the same compound, the TGI in the assay on HL-60(TB) leukemia is 23.3 µM; in the assay with RXF 393 renal, 2.57 µM; in the assay on LOX IMVI melanoma, 23 µM; in the assay with HCT-15 colon, 10.4 µM; with K-562 leukemia it was 11.9 µM; in the assay on OVCAR-4 ovarian it was 5.81 µM. The results for the TGI in the assay on SR leukemia and in the assay on UO-31 renal were 5.93 µM and 19.3 µM, respectively.

Turning to `CCC(O)c1ccc(Br)cc1NC(=O)c1cccc(Cl)c1` (stereo unspecified), the GI50 in the assay on HL-60(TB) leukemia is 22.3 µM; in the assay with COLO 205 colon it was 18.8 µM; in the assay with LOX IMVI melanoma, 9.03 µM; in the assay on HCT-15 colon it was 23.1 µM; in the assay with K-562 leukemia, 15.6 µM; in the assay on OVCAR-4 ovarian, 30 µM. The GI50 in the assay on SR leukemia is 24 µM; in the assay with UO-31 renal, 10.8 µM. Further, the TGI in the assay on HL-60(TB) leukemia was 60.1 µM; with COLO 205 colon it was 34.6 µM; in the assay on LOX IMVI melanoma, 25 µM; in the assay with HCT-15 colon, more than 100 µM; with K-562 leukemia it was more than 100 µM; with OVCAR-4 ovarian it was more than 100 µM. Moreover, the TGI in the assay with SR leukemia is 70.5 µM; with UO-31 renal, more than 100 µM.

Consider `COc1ccc(/C=C/C(=O)/C=C/c2cc3ccccc3[nH]c2=O)cc1`, for which the GI50 is 3.24 µM in the assay with HL-60(TB) leukemia; 3.31 µM with COLO 205 colon; 3.31 µM with RXF 393 renal; 2.41 µM with HCT-15 colon; 3.34 µM in the assay on K-562 leukemia; 9.73 µM with OVCAR-4 ovarian. The figures for the GI50 with SR leukemia and in the assay with UO-31 renal were 2.88 µM and 3.48 µM, respectively. Besides, the TGI is 17.6 µM in the assay with HL-60(TB) leukemia; 9.37 µM in the assay with COLO 205 colon; 11.9 µM in the assay on RXF 393 renal; 7.69 µM in the assay with HCT-15 colon; more than 100 µM with K-562 leukemia; more than 100 µM in the assay on OVCAR-4 ovarian. For the same compound, the TGI was 8.65 µM in the assay on SR leukemia and 17.9 µM with UO-31 renal.

As for `COc1ccc(OC)c(NC(=O)CCC/C(CC(=O)c2ccc(O)c(OC)c2)=N\Nc2nnc(C)n2N)c1`, the TGI in the assay with HL-60(TB) leukemia, with COLO 205 colon, in the assay with LOX IMVI melanoma, with HCT-15 colon, in the assay on K-562 leukemia and in the assay with OVCAR-4 ovarian was more than 100 µM throughout. For the same compound, the TGI with SR leukemia, with UO-31 renal and with EKVX NSCLC was more than 100 µM throughout.

As to `COc1cc2nc(SCc3cc(OC)c(OC)c(OC)c3)n(Cc3ccccc3)c(=O)c2cc1OC`, the GI50 was 2.14 µM in the assay on HL-60(TB) leukemia; 1.74 µM in the assay with COLO 205 colon; 1.02 µM in the assay with RXF 393 renal; 4.35 µM in the assay with LOX IMVI melanoma; 1.08 µM in the assay on HCT-15 colon; 0.875 µM in the assay with K-562 leukemia. Besides, the results for the GI50 in the assay on OVCAR-4 ovarian, with SR leukemia and with UO-31 renal were 5.5 µM, 0.533 µM and 3.9 µM, respectively. For the same compound, the TGI was more than 100 µM in the assay with HL-60(TB) leukemia; 6.96 µM in the assay with COLO 205 colon; 10.8 µM with RXF 393 renal; more than 100 µM with LOX IMVI melanoma; more than 100 µM with HCT-15 colon; more than 100 µM with K-562 leukemia. Besides, the results for the TGI in the assay on OVCAR-4 ovarian, with SR leukemia and with UO-31 renal were more than 100 µM, more than 22.2 µM and more than 100 µM, respectively.

Take `COc1ccc(-c2cs/c(=N\N=C\c3ccc(O)cc3O)n2/N=C/c2ccc(O)cc2O)cc1`: the GI50 was 1.76 µM with HL-60(TB) leukemia; 2.09 µM in the assay on COLO 205 colon; 1.76 µM in the assay with LOX IMVI melanoma; 1.73 µM in the assay on HCT-15 colon; 2.62 µM in the assay on K-562 leukemia; 2.17 µM with OVCAR-4 ovarian. In addition, the GI50 was 2.53 µM in the assay with SR leukemia, 1.5 µM with UO-31 renal and 2.32 µM in the assay with EKVX NSCLC. The TGI in the assay with HL-60(TB) leukemia was 6.09 µM; in the assay with COLO 205 colon it was 4.19 µM; in the assay with LOX IMVI melanoma it was 3.68 µM; in the assay on HCT-15 colon, 5.12 µM; in the assay on K-562 leukemia it was more than 100 µM; in the assay on OVCAR-4 ovarian, 7.12 µM. Further, the values for the TGI in the assay with SR leukemia, in the assay with UO-31 renal and in the assay on EKVX NSCLC were more than 100 µM, 3.2 µM and 6.73 µM, respectively.

Values taken from PubChem BioAssay (NCI).
